Source: patent US20060287251A1, “Combination therapy for glycaemic control” (priority 2003, published 2006)

Test system: diabetic Zucker (fa/fa) rats
Test: Glutaminyl thiazolidine and Metformin alone or in combination, glycemic control in diabetic Zucker (fa/fa) rats
Type: in vivo, rat
Settings: b.i.d. oral; for reactive and absolute G-AUC: p<0.05 vs. Control; for glucose tolerance curve in the OGTT: vs. Control
Procedure: Ten or eleven weeks old male Zucker (fa/fa) rats were purchased from Charles River (Sulzfeld, Germany). Animals were kept under standardized semi-barrier conditions with controlled temperature (22±2° C.) on a 12/12 hours light/dark cycle (light on at 06:00 a.m.). Standard pelleted chow (ssniff®, Soest, Germany) and tap water acidified with HCl were allowed ad libitum. At the age of 12 weeks the animals (N=42) were divided in random order into six experimental groups to be medicated. Definition of the Experimental Groups for the Medications (GT=glutaminyl thiazolidine):
The single or combined doses per kg b.w. were solved in 5 mL dist. water for oral administration.
The study was started with the 12 to 13 weeks old Zucker (fa/fa) rats. At the beginning of the study an OGTT was performed (2 g glucose/kg body weight (b.w.); administration volume: 5 mL/kg of a 40% solution; B. Braun Melsungen, Melsungen, Germany) after a 16 h fast. […] Dosing was performed at t=5 min before OGTT by gavage.
Blood samples were taken from tail veins to measure blood glucose and serum insulin at −15, ±0 min, 15, 30, 60, 90, 120 and 180 min (the latter time without insulin samples) with respect to time of glucose administration.
After the first OGTT the animals in the groups were dosed twice daily with the respective drugs at 08:00 AM and at 04:00 PM, respectively:
During the two weeks of medication morning blood glucose was measured before the 08:00 AM medication at Monday, Wednesday and Friday.
Food intake was determined every day during the time of medication.
All the animals were weighted three times per week at 7:30 AM.
A second OGTT was performed after two weeks of medication (Day 15). The food was withdrawn at 04:00 PM the day before (16 h fast). The OGTT was performed with pre-medication at −5 min and oral glucose loading at ±0 min. Blood samples were taken from tail veins to measure blood glucose, and serum insuline at −15, ±0 min, 15, 30, 60, 90, 120 and 180 min (the latter time without insulin samples).
Glycated hemoglobin was measured before (Day −7) and on Day 18.
Glucose-For determination of glucose 20 μL blood were collected at −15, ±0 min (before OGTT) and 15, 30, 60, 90, 120 and 180 min post OGTT.
Insulin-Insulin concentrations were assayed by the antibody RIA method (Linco Research, Inc. St. Charles, Mo., USA).
Glycated haemoglobin-Percentage of glycated hemoglobin A (HbA1c) was estimated with the “DCA 2000R Hämoglobin A1c-Reagenz kit”(Bayer Vital GmbH, Fernwald, Germany).
The body weight was measured using a platform balance (Scaltec, Heiligenstadt, Germany).
Mixed venous blood samples from the tails were collected into 20 μL glass capillaries, which were placed in standard tubes filled with 1 ml solution for hemolysis (blood glucose measurement) and in sample tubes for serum insulin (50 μL blood).
Raw data of glucose analysis were provided by IDK to probiodrug in Excel format as soon as possible. Data for each drug and each parameter (glucose, insulin) were summarized by descriptive statistics (mean, SEM). […] Changes from baseline were calculated and summarized by descriptive statistic.

[1] = GT 60 mg/kg b.w. and/or Metformin 125 mg/kg b.w. (Met-low)
[2] = Metformin 300 mg/kg b.w. (Met-high) with or without GT 60 mg/kg b.w.

CN(C)C(=N)N=C(N)N [Metformin, 1,1-Dimethylbiguanidine]
reactive and absolute G-AUC [1]: significantly reduced | glucose tolerance curve in the OGTT [1]: significantly improved glucose tolerance curves | reactive and absolute G-AUC [2]: once more lowered | glucose tolerance curve in the OGTT [2]: further improvement of glucose tolerance curve
